Test systems include COLO 205 colon; HCC-2998 colon; HCT-116 colon; HT29 colon; MCF7 breast; MDA-MB-231 breast; NCI/ADR-RES ovarian; OVCAR-8 ovarian; SK-MEL-28 melanoma; SR leukemia.
Common to all, as to assay: growth of human tumour cells (NCI), 48 h

The values that follow come from PubChem BioAssay (NCI).

Several values for one entry are separate records, joined by “and”; a condition that tells them apart may be missing. Equal values may be shown once.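 Five concentrations, 48 hours, 96-well plates. GI50 = concentration required for 50% inhibition of growth. The concentration for full growth arrest is given as TGI.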

`Nc1ccccc1C#C/C=C\C#Cc1ccccc1OC(F)(F)F`: the GI50 was 5.19 µM with COLO 205 colon; 2.93 µM in the test on HCC-2998 colon; 4.45 µM with HCT-116 colon; 3.62 µM in the test with HT29 colon; 3.67 µM with MCF7 breast; 5.34 µM with MDA-MB-231 breast. Moreover, the GI50 is 2.82 µM in the test on NCI/ADR-RES ovarian, 6.7 µM in the test on OVCAR-8 ovarian, 7.55 µM with SK-MEL-28 melanoma and 1.63 µM in the test on SR leukemia. The TGI in the test with COLO 205 colon is 28 µM; in the test on HCC-2998 colon it was 14.7 µM; in the test on HCT-116 colon, 16.7 µM; with HT29 colon, 28.7 µM; with MCF7 breast, over 100 µM; with MDA-MB-231 breast it was 24.7 µM. Besides, the TGI is 11.1 µM in the test on NCI/ADR-RES ovarian, 47.2 µM in the test on OVCAR-8 ovarian, 36.8 µM in the test on SK-MEL-28 melanoma and 13.9 µM in the test on SR leukemia.
For the compound `CC(=O)OC1OC([C@@H]2c3cccc(O)c3C(=O)c3c(O)cc(C)cc32)C(O)C(O)C1O` (stereo not given in full), the GI50 in the test with COLO 205 colon was 0.0429 µM; in the test with HCC-2998 colon, under 0.01 µM; in the test with HCT-116 colon, 0.108 µM; with HT29 colon it was 0.059 µM; in the test with MCF7 breast, 0.282 µM; in the test on MDA-MB-231 breast, under 0.0153 µM. Besides, the GI50 in the test with NCI/ADR-RES ovarian was 0.0391 µM; in the test on OVCAR-8 ovarian it was 0.122 µM; with SK-MEL-28 melanoma it was 0.0514 µM; in the test on SR leukemia it was 0.032 µM. Further, the TGI in the test with COLO 205 colon is 2.68 µM; in the test on HCT-116 colon, 1.2 µM; in the test on HT29 colon, over 100 µM; with MCF7 breast, 2.78 µM; in the test with MDA-MB-231 breast, 0.0377 µM; in the test on NCI/ADR-RES ovarian, 0.773 µM. The TGI with OVCAR-8 ovarian came to 4 µM; in the test on SK-MEL-28 melanoma, 3.6 µM; with SR leukemia, 0.0859 µM.
For `O=C(Nc1ccccc1)c1c(O)[nH]c(=S)[nH]c1=O`, the GI50 with COLO 205 colon is 39.3 µM; with HCC-2998 colon it was 95.3 µM; in the test on HCT-116 colon it was 58.6 µM; with HT29 colon it was 93.5 µM; in the test on OVCAR-8 ovarian, 41.3 µM; with SK-MEL-28 melanoma, 127 µM. Further, the TGI in the test with COLO 205 colon was 64.1 µM and 105 µM; in the test with HCC-2998 colon, 120 µM and > 250 µM; in the test with HCT-116 colon it was 111 µM and > 250 µM; with HT29 colon it was 125 µM and > 250 µM; in the test on MCF7 breast it was 92.8 µM; in the test with MDA-MB-231 breast it was 94 µM. Besides, the TGI was 83.8 µM with NCI/ADR-RES ovarian; 76.7 µM and > 250 µM in the test on OVCAR-8 ovarian; 124 µM and > 250 µM in the test on SK-MEL-28 melanoma; 53.8 µM with SR leukemia.
Take `Cc1cc(-c2nc(C(=O)Nc3cc4oc(N5CCOCC5)nc4nc3N3CC[C@@H](O)C3)co2)ccn1`: the GI50 with COLO 205 colon is 37.2 µM; in the test with HCC-2998 colon, 55 µM; in the test with HCT-116 colon, 30.1 µM; in the test on HT29 colon it was over 100 µM; in the test on MCF7 breast, 84.1 µM; with MDA-MB-231 breast it was 45.6 µM. Further, the GI50 in the test on NCI/ADR-RES ovarian is over 100 µM; in the test with OVCAR-8 ovarian, 38.7 µM; in the test on SK-MEL-28 melanoma, 56.2 µM; in the test on SR leukemia, 30.9 µM. Also, the TGI with COLO 205 colon, in the test with HCC-2998 colon, in the test on HCT-116 colon, with HT29 colon, in the test on MCF7 breast and with MDA-MB-231 breast was over 100 µM in each case. In addition, the TGI in the test on NCI/ADR-RES ovarian, in the test on OVCAR-8 ovarian, in the test with SK-MEL-28 melanoma and in the test on SR leukemia was over 100 µM throughout.
In the case of `OCCN(CCO)c1ncnc2c1ncn2Cc1ccc(CCl)cc1`, the GI50 in the test with COLO 205 colon is 18.2 µM; in the test with HCC-2998 colon it was 15.4 µM; with HCT-116 colon it was 14 µM; in the test with HT29 colon, 32.5 µM; in the test with MCF7 breast, 6.3 µM; with MDA-MB-231 breast, 18 µM. The GI50 was 24.7 µM in the test with NCI/ADR-RES ovarian, 15.4 µM with OVCAR-8 ovarian, 23.8 µM in the test on SK-MEL-28 melanoma and 6.94 µM in the test on SR leukemia. Further, the TGI in the test with COLO 205 colon was 46.8 µM; with HCC-2998 colon, 28.9 µM; in the test with HCT-116 colon it was 33.8 µM; in the test with HT29 colon, over 100 µM; in the test with MCF7 breast, 32.5 µM; in the test on MDA-MB-231 breast it was 35.5 µM. For the same compound, the TGI in the test with NCI/ADR-RES ovarian was 74.1 µM; in the test on OVCAR-8 ovarian, 31.7 µM; in the test with SK-MEL-28 melanoma, 63.8 µM; in the test on SR leukemia, over 100 µM.
Turning to `Cc1ccc(NC(=O)Nc2ccc(-c3cccnc3)cc2N2CCC(CO)CC2)cc1`, the GI50 in the test on COLO 205 colon was 2.85 µM; in the test on HCC-2998 colon, 3.21 µM; in the test with HCT-116 colon, 1.78 µM; with HT29 colon, 1.47 µM; in the test on MCF7 breast, 1.59 µM; in the test on MDA-MB-231 breast it was 2.42 µM. Besides, the GI50 with NCI/ADR-RES ovarian was 3.62 µM; with OVCAR-8 ovarian, 6.43 µM; in the test with SK-MEL-28 melanoma, 1.49 µM; with SR leukemia, 2.83 µM. The TGI is 11.1 µM in the test on COLO 205 colon; over 100 µM in the test on HCC-2998 colon; 11.4 µM in the test with HCT-116 colon; 9.93 µM in the test on HT29 colon; over 100 µM in the test on MCF7 breast; over 100 µM with MDA-MB-231 breast. Moreover, the TGI in the test on NCI/ADR-RES ovarian is over 100 µM; in the test with OVCAR-8 ovarian, over 100 µM; in the test on SK-MEL-28 melanoma it was 5.42 µM; with SR leukemia, over 100 µM.
